# Calls of active or inactive are those of the source. The rule behind the calls is not given here.
# System: Trypanosoma brucei
# Assay: Antimicrobial activity against blood stream form Trypanosoma brucei BSF427 expressing VSG118 after 69 hrs by resazurin-based fluorescent assay
# Assay type: functional, organism-based
# Details: BSF427, 69 h
row,SMILES,EC50 [µM]
1,Cc1nn(C)c(C)c1NS(=O)(=O)c1c(Cl)cc(-c2ccc(CN3CCN(C)CC3)cc2)cc1Cl,3.6

# System: not listed separately
# Assay: Fraction unbound in mouse plasma
# Assay type: ADME, cell-free
# Details: not given
row,SMILES,fraction unbound
1,Cc1nn(C)c(C)c1NS(=O)(=O)c1c(Cl)cc(-c2ccnc(N3CCNCC3)c2)cc1Cl [listing 1 of 2 here],0.11

# System: not listed separately
# Assay: Dissociation constant, pKa of the compound
# Assay type: physicochemical
# Details: not given
row,pKa,SMILES
1,9.6,Cc1nn(C)c(C)c1NS(=O)(=O)c1ccc(NCCC2CCN(C)CC2)nc1
2,9.3,Cc1nn(C)c(C)c1NS(=O)(=O)c1ccc(NCCN2CCNCC2)nc1
3,7.9,Cc1nn(C)c(C)c1NS(=O)(=O)c1ccc(NCCN2CCN(C)CC2)nc1

row,SMILES,pKa
1,Cc1nn(C)c(C)c1NS(=O)(=O)c1ccc(NCCCn2ccnc2)nc1,7.1

# System: Trypanosoma brucei brucei
# Assay: Antitrypanosomal activity against Trypanosoma brucei brucei GVR35 infected in NMRI mouse assessed as increase in survival time at 20 mg/kg, ip qd for 5 days measured after 180 days
# Assay type: functional
# Details: route intraperitoneal
row,SMILES,survival at 20 mg/kg [%]
1,Nc1nc(N)nc(Nc2ccc([As]3SCC(CO)S3)cc2)n1 (stereo not given) [MELARSOPROL],100

# Biological target: T1, Glycylpeptide N-tetradecanoyltransferase 1 (Homo sapiens, UniProt P30419)
# T1 sequence (P30419 whole entry): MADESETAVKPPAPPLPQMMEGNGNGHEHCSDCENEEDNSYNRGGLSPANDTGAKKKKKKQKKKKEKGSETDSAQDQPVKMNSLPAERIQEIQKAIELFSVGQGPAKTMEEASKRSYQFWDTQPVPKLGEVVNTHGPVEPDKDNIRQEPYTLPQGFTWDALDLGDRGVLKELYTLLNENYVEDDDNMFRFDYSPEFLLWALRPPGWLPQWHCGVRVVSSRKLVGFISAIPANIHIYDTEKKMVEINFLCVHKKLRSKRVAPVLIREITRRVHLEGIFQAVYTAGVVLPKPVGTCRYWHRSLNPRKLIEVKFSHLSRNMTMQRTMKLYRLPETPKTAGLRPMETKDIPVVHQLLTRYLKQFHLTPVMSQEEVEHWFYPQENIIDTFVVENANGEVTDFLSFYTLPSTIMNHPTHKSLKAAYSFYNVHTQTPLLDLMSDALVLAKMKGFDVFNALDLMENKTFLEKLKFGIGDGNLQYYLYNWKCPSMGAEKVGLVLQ
# Details: not given
row,SMILES,IC50 [µM]
1,Cc1nn(C)c(C)c1NS(=O)(=O)c1ccc(NCCN2CCN(C(=O)OC(C)(C)C)CC2)nc1,> 10
2,Cc1nn(C)c(C)c1NS(=O)(=O)c1ccc(NCCN2CCN(Cc3ccccc3)CC2)nc1,> 10
3,Cc1nn(C)c(C)c1NS(=O)(=O)c1ccc(NCCN2CCN(c3ccccc3)CC2)nc1,> 1
4,Cc1nn(C)c(C)c1NS(=O)(=O)c1ccc(Cl)nc1,> 100
5,Cc1nn(C)c(C)c1NS(=O)(=O)c1ccc(NCc2ccc3[nH]ccc3c2)nc1,2.7
6,Cc1nn(C)c(C)c1NS(=O)(=O)c1c(Cl)cc(-c2cccc3c2CCNC3)cc1Cl,4.3
7,Cc1nn(C)c(C)c1NS(=O)(=O)c1ccc(NCCCN2CCN(C)CC2)nc1,2.4
8,Cc1nn(C)c(C)c1NS(=O)(=O)c1c(Cl)cc(-c2ccc(CN3CCN(C)CC3)cc2)cc1Cl,4.2
9,Cc1nn(C)c(C)c1NS(=O)(=O)c1ccc(N2CCC(N3CCNCC3)C2)nc1 (stereo not given),1.6
10,Cc1nn(C)c(C)c1NS(=O)(=O)c1ccc(NCCCn2ccnc2)nc1,8.7
11,Cc1nn(C)c(C)c1NS(=O)(=O)c1c(Cl)cc(-c2cccc3cnccc23)cc1Cl,> 100
12,Cc1nn(C)c(C)c1NS(=O)(=O)c1ccc(NCCN2CCN(C(C)C)CC2)nc1,> 1

# System: Trypanosoma brucei brucei
# Assay: Antitrypanosomal activity against Trypanosoma brucei brucei GVR35 infected in NMRI mouse assessed as increase in survival time at 100 mg/kg, po bid administered on day 21 post infection for 5 days after 21 days relative to control
# Assay type: functional, organism-based
# Parameters: dose 100 mg/kg
# Details: not given
row,SMILES,Survival
1,Cc1nn(C)c(C)c1NS(=O)(=O)c1c(Cl)cc(-c2ccnc(N3CCNCC3)c2)cc1Cl [listing 2 of 2 here],inactive

# Reference: ChEMBL document CHEMBL1949590, “Discovery of a novel class of orally active trypanocidal N-myristoyltransferase inhibitors” (J Med Chem, 2012)
